How the values were obtained:
FROUNT-CCR5 interaction = molecular target: T1, FROUNT-CCR5 interaction (Homo sapiens, UniProt Q9BW27); test: HTRF binding inhibition assay, FROUNT-CCR5 interaction; details: result in words
T1 construct: made in house
T1 sequence (Q9BW27 500-656): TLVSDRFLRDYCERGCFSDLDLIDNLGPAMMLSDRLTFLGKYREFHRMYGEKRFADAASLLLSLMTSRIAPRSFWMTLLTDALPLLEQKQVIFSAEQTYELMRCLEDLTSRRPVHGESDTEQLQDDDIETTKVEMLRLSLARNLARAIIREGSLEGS
Method: For the screening, a compound library containing 131,200 kinds of compounds dissolved in DMSO at a concentration of 10 mM or 2 mM (obtained from Open Innovation Center for Drug Discovery, the University of Tokyo) was used. The HTRF assay was carried out using a 384-well low-dose white microplate (Corning Coaster; catalog number 3676). In each well, 4 μL of a solution of 20 nM GST fusion FROUNT protein (a recombinant polypeptide prepared by fusing GST to aa 500-656 of SEQ ID NO:2), and DMSO or test compounds were mixed with a binding buffer (10 mM HEPES [pH 7.4], 0.2 M potassium fluoride, 10 mM NaCl, 0.1% Tween 20, and 0.5% bovine serum albumin [BSA]), and the plate was incubated at room temperature for 30 minutes. […]. After incubation at room temperature for 20 hours, the HTRF signal was measured at emission wavelengths of 620 nm and 665 nm using a multilabel counter EnVision (PerkinElmer).
By the same HTRF assay as described above, the abilities of disulfiram to inhibit the FROUNT-CCR2 interaction or the FROUNT-CCR5 interaction were investigated. As the CCR5 pro-C peptide, the 16 residues […] (SEQ ID NO:4) in the C-terminal region of CCR5 was used. As a control, the p53-MDM2 interaction (which is inhibited by an MDM-2-specific inhibitor Nutlin), which is also a helix peptide-protein interaction like the interaction between FROUNT and CCR2 or CCR5 but is not related thereto, was used.

B16F10 melanoma cells [1] = test: WST-1 proliferation assay, B16F10 melanoma cells; assay type: cell-based; details: WST-1, 48 hours
Method: (§1) The cytotoxicity of inhibitors was tested by using LDH Cytotoxicity Detection Kit (TaKaRa) according to the manufacturer's instructions. Briefly, tumor cells were cultured in the presence or absence of an agent (disulfiram or 5FU) for 72 hours, and the culture supernatant was then collected and tested for the concentration of lactate dehydrogenase released from damaged cells. For measurement of cell proliferation, cells were incubated in a plate well together with an inhibitor for 48 hours. During the last 30 minutes, WST-1 (Dojindo Laboratories) was added to the culture liquid, and the absorbance of each well was measured at 450 nm versus 650 nm reference using EnVision (PerkinElmer) to detect the formazan level.

[2] = test system: infiltrating cells in the peritoneum (macrophages, neutrophils); test: In vivo chemotaxis assay (thioglycolate peritonitis); design: species or system mouse; details: wild-type mice
Method: Peritonitis was induced by intraperitoneal administration of 2 mL of 4% thioglycolate medium (Difco) to each of FNT^flox/flox mice and FNT-cKO mice. Infiltrating cells in the peritoneum were collected by injecting 5 mL of ice-cold PBS into the abdominal cavity and giving a gentle massage. The collected cells was washed with PBS containing 0.1% FBS, and then subjected to flow cytometry analysis to investigate the cell number and the cell populations. The same treatment as in the above-described section 8 was carried out on wild-type mice to induce peritonitis, and infiltrating cells in the peritoneum were collected. After washing the collected cells, flow cytometry analysis was carried out to investigate the cell number and the cell populations. For evaluation of disulfiram, disulfiram was dissolved in DMSO, and then diluted in 2% Tween 80-containing physiological saline to each concentration shown in the figure. Each resulting disulfiram solution was administered to mice 1 day before and 30 minutes before the administration of thioglycolate.

B16F10 melanoma cells [3] = test: Lung metastasis model (B16F10); assay type: in vivo, mouse; details: B16F10 via tail vein, Day 9 post tumor administration
Method: To provide a lung metastasis model, 1×10^6 B16F10 melanoma cells were suspended in 200 μL of PBS, and administered from the tail vein of each of wild-type C57BL/6 mice. Administration of the inhibitor was carried out one day before, 30 minutes before, and one day after the tumor administration. To provide a control, DMSO and a pyrimidine fluoride anticancer drug 5-FU were administered. The mice were euthanized on Day 9 post tumor administration, and PBS was perfused from the left ventricle, followed by isolation of lungs. Visible lung metastatic lesions in the left lobe were counted.

[4] = test system: LLC (Lewis lung cancer) cells; test: Subcutaneous tumor growth model (LLC); assay type: in vivo, mouse; details: 0.8 mg/g in feed, oral, Day 4 to Day 11, vs control group
Method: For evaluation of the subcutaneous tumor growth, LLC (Lewis lung cancer) cells (5×10^5) were suspended in 50 μL of PBS, and subcutaneously administered to the right abdomen of each mouse. The tumor size was measured using a caliper twice a week. The tumor volume was calculated according to the following equation. Tumor volume=(tumor shorter diameter)^2×tumor longer diameter/2 In order to investigate the antitumor effect in the subcutaneous tumor growth model, disulfiram was added in an amount of 0.8 mg/g to CE-2 powder feed (CLEA Japan, Inc.) supplemented with 5% sucrose (Wako), and the mice were fed therewith every day during the period from Day 4 to Day 11 post tumor inoculation. The control group was fed with a feed supplemented with the same amount of sucrose.

FROUNT protein = molecular target: T2, FROUNT protein (Homo sapiens, UniProt Q9BW27); test: NMR analysis of binding to FROUNT fragment
T2 construct: A fragment consisting of the region of the 500th to 656th amino acids of FROUNT protein; made in house
T2 sequence (Q9BW27 500-656): T1 sequence (Q9BW27 500-656)
Method: A fragment consisting of the region of the 500th to 656th amino acids of FROUNT protein and a CCR2 pro-C region fragment of 16 residues (SEQ ID NO:3) were prepared, and the binding state between the two fragments and the binding state between FROUNT protein and disulfiram were investigated by NMR analysis.

LLC tumor cells = test: LDH cytotoxicity assay, LLC tumor cells; assay type: cell-based; details: LDH release, 72 hours
Method: as §1

B16F10 melanoma cells [5] = test: LDH cytotoxicity assay, B16F10 melanoma cells; assay type: cell-based; details: LDH release, 72 hours
Method: as §1

inhibition of FROUNT-CCR5 interaction (FROUNT-CCR5 interaction): selectively inhibited
interaction with FROUNT / binding site on FROUNT (FROUNT protein): directly interact
SMILES: CCN(CC)C(=S)SSC(=S)N(CC)CC [DSF, disulfiram]
growth-inhibiting action on B16F10 melanoma cells (B16F10 melanoma cells [1]): did not show any action
infiltration of macrophages into peritoneal inflammatory sites [2]: reduced
infiltration of neutrophils into peritoneal inflammatory sites [2]: not influenced
formation of lung metastatic lesions (B16F10 melanoma cells [3]; listed as Disulfiram): significantly reduced
formation of lung metastatic lesions (B16F10 melanoma cells [3]; listed as disulfiram): effectively reduced
tumor volume [4]: significantly smaller
cytotoxic activity on LLC tumor cells (LLC tumor cells): did not show cytotoxic activity
cytotoxic activity on B16F10 melanoma cells (B16F10 melanoma cells [5]): did not show any action
